Consider 14 compounds from PubChem BioAssay (NCI).

Among the test systems are EKVX NSCLC; HCC-2998 colon; HCT-116 colon; HCT-15 colon; K-562 leukemia; LOX IMVI melanoma; M14 melanoma; MCF7 breast; OVCAR-4 ovarian; UACC-62 melanoma; BT-549 breast.
What all share (assay): growth of human tumour cells (NCI), 48 h

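Five compound concentrations were applied to cells in 96-well plates for 48 hours; endpoints were derived by simple linear interpolation of the resulting dose-response curve. The concentration for 50% growth inhibition is given as GI50. TGI: concentration producing complete growth inhibition.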

With `O=[N+]([O-])c1ccc(Cl)cc1C1ON=C(c2ccccc2)N1C12CC3CC(CC(C3)C1)C2` (stereo unspecified), the TGI with EKVX NSCLC, with HCC-2998 colon, with HCT-116 colon, in the assay on HCT-15 colon, in the assay on K-562 leukemia and with LOX IMVI melanoma was > 100 µM in each case. The TGI with M14 melanoma, with MCF7 breast, in the assay with OVCAR-4 ovarian and in the assay on UACC-62 melanoma was > 100 µM each time.
In the case of `O=C(O)c1c(CC(Cc2ccc3c(c2)CCCC3)C(=O)O)ccc2c1CCCC2` (stereo unspecified), the TGI with BT-549 breast, with EKVX NSCLC, with HCC-2998 colon, in the assay on HCT-116 colon, in the assay on HCT-15 colon and in the assay with K-562 leukemia was > 100 µM each time. The TGI with LOX IMVI melanoma, in the assay with M14 melanoma and in the assay on UACC-62 melanoma was > 100 µM in each case.
`c1ccc2nc3[nH]c4ccccc4c3cc2c1`: the TGI with BT-549 breast is 2.87 µM; in the assay on EKVX NSCLC, 4.8 µM; with HCC-2998 colon, 2.85 µM; in the assay with HCT-15 colon, 1.38 µM; in the assay on K-562 leukemia, > 100 µM; with LOX IMVI melanoma, 1.16 µM. The TGI was determined as 1.85 µM with M14 melanoma, 2.79 µM in the assay on OVCAR-4 ovarian and 2.2 µM in the assay with UACC-62 melanoma.
For `CN1CCN(CC(=O)Nc2ccc3ncnc(Nc4ccc(Oc5cccc(C(F)(F)F)c5)c(Cl)c4)c3c2)CC1`, the GI50 in the assay on BT-549 breast was 1.47 µM; in the assay on EKVX NSCLC, 1.32 µM; in the assay on HCT-15 colon it was 1.2 µM; in the assay on MCF7 breast, 1.48 µM; in the assay with OVCAR-4 ovarian, 1.51 µM; in the assay on UACC-62 melanoma, 1.83 µM. Also, the TGI was 2.85 µM with BT-549 breast; 2.7 µM in the assay with EKVX NSCLC; 2.52 µM in the assay with HCT-15 colon; 3 µM in the assay with MCF7 breast; 3.02 µM in the assay with OVCAR-4 ovarian; 3.4 µM with UACC-62 melanoma.
Take `COC(=O)C1=NN2c3ccccc3C(=O)OCCC2C1` (stereo unspecified): the TGI in the assay on BT-549 breast, in the assay with EKVX NSCLC, in the assay with HCC-2998 colon, in the assay with HCT-116 colon, in the assay on HCT-15 colon and in the assay with K-562 leukemia was > 100 µM throughout. Further, the TGI in the assay on LOX IMVI melanoma, in the assay with MCF7 breast, with OVCAR-4 ovarian and in the assay on UACC-62 melanoma was > 100 µM each time.
In the case of `COc1ccc(CNc2nc(NCc3ccc(OC)cc3)nc(Nc3ccccc3)n2)cc1`, the TGI was > 100 µM in the assay with BT-549 breast; > 100 µM in the assay on EKVX NSCLC; > 100 µM in the assay with HCT-116 colon; 13.5 µM with HCT-15 colon; > 100 µM with K-562 leukemia; > 100 µM in the assay with M14 melanoma. Also, the TGI with MCF7 breast, in the assay with OVCAR-4 ovarian and in the assay with UACC-62 melanoma was > 100 µM each time.
On to `Cc1nc2c(nc1C)-c1c(c3c(n1Cc1ccccc1)C(=O)CCC3)C(=O)C2=O`, for which the TGI in the assay on BT-549 breast is 5.84 µM; in the assay on EKVX NSCLC it was > 100 µM; with HCC-2998 colon, 5.49 µM; in the assay on HCT-116 colon, > 100 µM; in the assay with HCT-15 colon, > 100 µM; with K-562 leukemia, > 100 µM. The TGI with M14 melanoma amounted to 91.1 µM; in the assay on MCF7 breast, 5.39 µM; in the assay on OVCAR-4 ovarian it was 3.59 µM; in the assay on UACC-62 melanoma it was 50.9 µM.
Take `C=CC1OC(CCCOC(=O)C(C)(C)C)O[C@@H]1CC` (stereo partly specified): the TGI with EKVX NSCLC, in the assay on HCT-15 colon, with M14 melanoma, in the assay on MCF7 breast, in the assay on OVCAR-4 ovarian and with UACC-62 melanoma was > 100 µM throughout.
On to `Oc1ccc(-c2nc3cc(C(F)(F)F)ccc3n2CC2CCCN3CCCCC23)cc1` (stereo unspecified), for which the TGI in the assay on EKVX NSCLC came out at 31 µM; with HCC-2998 colon, 21.5 µM; in the assay with HCT-116 colon it was 29.3 µM; in the assay on HCT-15 colon, 30.1 µM; in the assay with K-562 leukemia, 30.3 µM; with LOX IMVI melanoma it was 28.8 µM. Besides, the TGI in the assay with M14 melanoma was 32.3 µM; in the assay with MCF7 breast, 25.2 µM; in the assay with OVCAR-4 ovarian, 31.2 µM.
As to `C/C=C(/C)C(=O)O[C@@H]1c2c(C)coc2C[C@H]2CC[C@H](O)[C@H](C)[C@]21C`, the TGI in the assay with EKVX NSCLC, with HCC-2998 colon, with HCT-116 colon, in the assay with HCT-15 colon, in the assay on K-562 leukemia and with LOX IMVI melanoma was > 100 µM in each case. Also, the TGI in the assay on M14 melanoma was > 100 µM; in the assay with MCF7 breast, 87.8 µM; with OVCAR-4 ovarian it was > 100 µM; in the assay with UACC-62 melanoma, > 100 µM.
As to `NC1CC2C3CCC2C1C3=O` (stereo unspecified), the TGI with EKVX NSCLC, in the assay on HCC-2998 colon, in the assay with HCT-116 colon, in the assay on HCT-15 colon, with K-562 leukemia and with LOX IMVI melanoma was > 100 µM throughout. The TGI in the assay on M14 melanoma, in the assay with MCF7 breast, with OVCAR-4 ovarian and with UACC-62 melanoma was > 100 µM each time.
With `O=[N+]([O-])CC(SCc1ccccc1)c1ccc2c(c1)OCO2` (stereo unspecified), the TGI came to 39.5 µM in the assay with EKVX NSCLC; 10.5 µM in the assay with HCC-2998 colon; 4.46 µM in the assay with HCT-116 colon; 15.9 µM in the assay with HCT-15 colon; 4.19 µM in the assay on K-562 leukemia; 3.39 µM with LOX IMVI melanoma. The TGI with M14 melanoma was determined as 13.1 µM; with MCF7 breast, 9.73 µM; in the assay on OVCAR-4 ovarian it was 27.1 µM; with UACC-62 melanoma, 25.2 µM.
As for `C/C(Cl)=N\OC(=O)Nc1ccccc1C(F)(F)F`, the TGI is 57.6 µM with EKVX NSCLC; > 100 µM in the assay with HCC-2998 colon; > 100 µM in the assay with HCT-116 colon; > 100 µM in the assay with HCT-15 colon; 40.3 µM with K-562 leukemia; 29.2 µM in the assay on LOX IMVI melanoma. The TGI with MCF7 breast was 61.5 µM; with OVCAR-4 ovarian, 26.9 µM.
On to `C=C(C)CCC1CCCCC(CN(C)C)C1=O` (stereo unspecified), for which the TGI in the assay with EKVX NSCLC, in the assay with HCT-116 colon, in the assay with HCT-15 colon, in the assay with K-562 leukemia, with LOX IMVI melanoma and in the assay on M14 melanoma was > 100 µM each time. The TGI in the assay with MCF7 breast, in the assay with OVCAR-4 ovarian and with UACC-62 melanoma was > 100 µM in each case.
